In patent publication US12637435B2, “Nitrogen-containing heterocyclic compound or salt thereof, use thereof, and intermediate thereof” (FUJIFILM Corporation, priority 2020, dated 2026):

Legend:
[1] = test system: human myeloid leukemia cell line HL60; assay: Cell growth test, HL60 (CellTiter-Glo); format: cell-based; conditions: HL-60, 72 h, HL60 cells, 3 days, CellTiter-Glo luminescence, read-out: Cell growth inhibitory effect (GI50)
Description: The cell growth test was carried out using the human myeloid leukemia cell line HL60 (available from ATCC, CRL-240). As a culture medium of HL60 cells, RPMI 1640 (available from FUJIFILM Wako Pure Chemical Corporation, 189-02025) supplemented with 10% fetal bovine serum (available from Thermo Fisher Scientific, Inc., 10437-028), and 1% penicillin-streptomycin (10,000 U/mL, available from Thermo Fisher Scientific, Inc., 15140-122) was used. HL60 cells were seeded on a 384-well plate (available from Corning Inc., 4588) at a cell density of 1×10^3 cells/20 μL/well. After culturing overnight, 5 μL of the test compound having a predetermined concentration was added, and 3 days later, 25 μL of CellTiter-Glo (registered trademark) Luminescent Cell Viability Assay (available from Promega Corporation, G7573) was added, and then the amount of luminescence was measured using an EnVision plate reader (available from PerkinElmer, Inc.). Since the amount of luminescence is proportional to the intracellular concentration of adenosine triphosphate (ATP), the amount of luminescence was used as an indicator of the number of viable cells. The growth inhibitory concentration for each test compound concentration was calculated by the following expression.
(§1) The growth inhibition rate at each test compound concentration was determined, and the 50% growth inhibitory concentration [GI50 (nmol/L)] was calculated using XLfit. Growth inhibition rate (%)=(amount of luminescence in test compound-added well)/(amount of luminescence in DMSO-added well)×100
The abbreviations in the table have the following meanings. • A: GI50 value<100 nmol/L • B: 100 nmol/L≤GI50 value<1,000 nmol/L • C: 1,000 nmol/L≤GI50 value

HL60 subcutaneous tumor = assay: In vivo drug efficacy test in cancer-bearing mouse model with subcutaneous transplantation of HL60; conditions: HL60 subcutaneous xenograft, female NOD/scid mice, oral 2.5 to 10 mg/kg once a day for 10 to 12 days
Text: (Drug Efficacy Test in Cancer-Bearing Mouse Model with Subcutaneous Transplantation of HL60)
The human acute myeloid leukemia cell line HL60 (available from JCRB) was suspended in a mixture of RPMI-1640 culture medium and Matrigel (available from Corning Inc.), and then subcutaneously transplanted into 6-week-old female NOD/scid mice (available from CLEA Japan, Inc.). The test compound was dispersed in a solvent (0.5% aqueous methylcellulose solution), and from the time when tumor engraftment was visually confirmed, the test compound was orally administered to mice at a dose of 2.5 to 10 mg/kg once a day for 10 to 12 days. A solvent administration group to which a 0.5% aqueous methylcellulose solution was administered was provided as a negative control. The tumor diameter was measured over time and the tumor volume was calculated. The tumor volume was calculated by measuring the major axis and the minor axis of the tumor and using the following expression. Tumor volume (mm^3)=[major axis (mm)×minor axis (mm)×minor axis (mm)]/2
T/C (%) was calculated from the average tumor volume of each group by the following expression, and the drug efficacy was evaluated. T/C (%)=(average tumor volume of drug-administered group)/(average tumor volume of solvent-administered group)×100%

recombinant human DHODH = target: T1, recombinant human DHODH (Homo sapiens, UniProt Q02127); assay: DHODH enzyme reaction inhibition test (DCIP-coupled assay); format: biochemical; conditions: recombinant human DHODH 0.175 μg/mL, DCIP absorbance 600 nm, 50 minutes, pH 8.0; read-out: Enzyme reaction inhibitory effect (IC50)
T1 construct: DHODH, 31-395aa, Human, His tag, E. coli, ATGP1615; His tag; purchased ATGen Co. Ltd. ATGP1615; host or cells: E. coli
Description: The DHODH enzyme assay was carried out with reference to “Benjamin Bader, Wolfgang Knecht, Markus Fries, and Monika Loffler, Expression, Purification, and Characterization of Histidine-Tagged Rat and Human Flavoenzyme Dihydroorotate Dehydrogenase, Protein Expression and Purification, 1998, 13, 414-422.”
The DHODH activity was evaluated using an enzyme assay system that is coupled with an assay in which a blue coloring agent 2,6-dichlorophenolindophenol (DCIP, available from MP Biomedicals, LLC, MP150118) is quenched. Purified recombinant human DHODH (DHODH, 31-395aa, Human, His tag, E. coli, ATGP1615) was purchased from ATGen Co. Ltd. The enzyme assay was carried out in a 384-well plate using a buffer solution containing 100 mmol/L Hepes (available from Dojindo Laboratories, 342-01375), 400 mmol/L NaCl (available from FUJIFILM Wako Pure Chemical Corporation, 191-01665), 10% Glycerol (available from FUJIFILM Wako Pure Chemical Corporation, 075-00616), 0.05% Triton X-100 (available from Sigma-Aldrich Co., LLC, T8787-100ML), 0.2 mmol/L Ubiquinone-10 (available from FUJIFILM Wako Pure Chemical Corporation, 216-00761), 0.1 mmol/L DHO (L-dihydroorotic acid, available from Sigma-Aldrich Co., LLC, D7128), 0.5% DMSO (dimethylsulfoxide, available from FUJIFILM Wako Pure Chemical Corporation, 047-29353), 0.175 μg/mL DHODH, and 0.12 mmol/L DCIP and having a pH adjusted to 8.0 by adding 5 mol/L potassium hydroxide (available from FUJIFILM Wako Pure Chemical Corporation, 168-21815). A test compound with a predetermined concentration was added using Biomek NX (available from Beckman Coulter Inc.), and the enzyme reaction was started by adding the substrate. The enzyme activity was assessed by measuring the decrease in DCIP absorbance (600 nm) for 50 minutes using an EnVision plate-reading spectrophotometer (available from PerkinElmer, Inc.).
as §1, with “enzyme reaction” for “growth”, “enzyme reaction inhibition” for “growth inhibitory”, “[IC50” for “[GI50”, “Enzyme reaction” for “Growth”
The abbreviations in the table have the following meanings. • A: IC50 value<10 nmol/L • B: 10 nmol/L≤IC50 value<100 nmol/L • C: 100 nmol/L≤IC50 value

T1 sequence (Q02127 31-395): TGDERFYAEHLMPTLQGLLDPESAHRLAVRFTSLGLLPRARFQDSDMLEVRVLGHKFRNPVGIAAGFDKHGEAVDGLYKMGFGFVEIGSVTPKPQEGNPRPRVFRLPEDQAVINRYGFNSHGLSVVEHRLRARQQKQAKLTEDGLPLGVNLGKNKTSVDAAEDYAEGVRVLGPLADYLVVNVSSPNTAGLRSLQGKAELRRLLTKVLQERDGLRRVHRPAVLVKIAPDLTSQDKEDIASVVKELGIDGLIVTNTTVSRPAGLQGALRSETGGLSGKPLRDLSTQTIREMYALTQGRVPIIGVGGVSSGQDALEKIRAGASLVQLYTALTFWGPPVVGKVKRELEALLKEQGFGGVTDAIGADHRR

Row | SMILES | GI50 [1] | IC50 (recombinant human DHODH) | tumor growth inhibition rate (T/C from tumor volume) (HL60 subcutaneous tumor)
1 | CCOc1c(C2=CCOCC2)ccc(F)c1Nc1ncc(C2CC2)cc1C(=O)NS(C)(=O)=O [Example 3-59] | ≥ 1000 nM | 10 to 100 nM | 
2 | C[C@H](Oc1c(Nc2ncc(C3CC3)nc2C(=O)NS(C)(=O)=O)cccc1C1=CCCOC1)C(F)(F)F [Example 3-62] | 100 to 1000 nM | 10 to 100 nM | 
3 | C[C@H](Oc1c(Nc2nnc(C3CC3)cc2C(=O)NS(C)(=O)=O)cccc1C1CCOCC1)C(F)(F)F [Example 3-63] | ≥ 1000 nM | 10 to 100 nM | 
4 | C[C@H](Oc1c(Nc2ccc(C3CC3)cc2C(=O)NS(C)(=O)=O)ccnc1C1=CCOCC1)C(F)(F)F [Example 3-64] | 100 to 1000 nM | 10 to 100 nM | 
5 | CC(C)c1cnc(Nc2cccc(C3=CCOCC3)c2OCC(F)(F)F)c(C(=O)NS(C)(=O)=O)n1 [Example 3-65] | 100 to 1000 nM | < 10 nM | 
6 | CCc1cnc(Nc2cccc(C3=CCOCC3)c2OCC(F)(F)F)c(C(=O)NS(C)(=O)=O)n1 [Example 3-66] | 100 to 1000 nM | < 10 nM | 
7 | Cc1cnc(Nc2cccc(C3=CCOCC3)c2OCC(F)(F)F)c(C(=O)NS(C)(=O)=O)n1 [Example 3-67] | 100 to 1000 nM | 10 to 100 nM | 

Now from value to compound, other results behind:

Row | GI50 [1] | IC50 (recombinant human DHODH) | SMILES | tumor growth inhibition rate (T/C from tumor volume) (HL60 subcutaneous tumor)
8 | < 100 nM | < 10 nM | CS(=O)(=O)NC(=O)c1nc(C2CC2)cnc1Nc1cccc(C2=CCOCC2)c1OCC(F)(F)F [Example 1-2, 6-cyclopropyl-3-((3-(3,6-dihydro-2H-pyran-4-yl)-2-(2,2,2-trifluoroethoxy)phenyl)amino)-N-(methylsulfonyl)pyrazine-2-carboxamide] | excellent tumor growth inhibition rate
9 | < 100 nM | < 10 nM | CS(=O)(=O)NC(=O)c1nc(C2CC2)cnc1Nc1cccc(C2CCOCC2)c1OCC(F)(F)F [Example 3-30] | excellent tumor growth inhibition rate
10 | < 100 nM | < 10 nM | N#Cc1ccc(-c2cccc(Nc3ncc(C4CC4)nc3C(=O)NS(N)(=O)=O)c2OCC(F)(F)F)cc1 [Example 3-41] | excellent tumor growth inhibition rate
11 | 100 to 1000 nM | 10 to 100 nM | N#Cc1ccc(-c2cc(F)cc(Nc3ncc(C4CC4)nc3C(=O)NS(N)(=O)=O)c2OC(F)F)cc1 [Example 3-54] | 
12 | 100 to 1000 nM | 10 to 100 nM | CS(=O)(=O)NC(=O)c1nc(C2CC2)cnc1Nc1cc(F)cc(-c2ccc(C#N)cc2)c1OC(F)F [Example 3-55] | 
13 | < 100 nM | < 10 nM | CS(=O)(=O)NC(=O)c1nc(C2CC2)cnc1Nc1cccc(-c2ccc(F)cc2)c1OCC(F)(F)F [Example 3-56] | 
14 | < 100 nM | < 10 nM | CCOc1c(Nc2ncc(C3CC3)nc2C(=O)NS(C)(=O)=O)cccc1C1=CCOCC1 [Example 3-57] | 
15 | < 100 nM | < 10 nM | CCOc1ccc(Nc2ncc(C3CC3)nc2C(=O)NS(C)(=O)=O)c(OCC)c1C1=CCOCC1 [Example 3-58] | 
16 | < 100 nM | < 10 nM | CCOc1c(Nc2ncc(C3CC3)cc2C(=O)NS(C)(=O)=O)ccc(F)c1C1=CCOCC1 [Example 3-60] | 
17 | 100 to 1000 nM | < 10 nM | CS(=O)(=O)NC(=O)c1cc(C2CC2)ncc1Nc1cccc(C2=CCOCC2)c1OCC(F)(F)F [Example 3-61] | 
